Some test systems named below: HOP-92 NSCLC; SN12C renal; SW-620 colon; SK-MEL-28 melanoma; SK-MEL-5 melanoma; A498 renal; TK-10 renal; IGROV1 ovarian; MOLT-4 leukemia.
Experiment in all cases: NCI-60 cell line screen, 48 h

The values below come from PubChem BioAssay (NCI).

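96-well plates; 48 h exposure; 5 concentrations. Endpoints by linear interpolation between flanking doses. Not reached: highest tested concentration assigned. TGI: concentration producing complete growth inhibition.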

As for `COc1ccc(OC(=O)CC2Cc3cc(OC)c(OC)c(OC)c3-c3ccc(SC)c(=O)cc32)cc1` (configuration not stated), the TGI was 9.05 µM in the assay on HOP-92 NSCLC; above 71.8 µM in the assay with SN12C renal; above 39.7 µM in the assay on SW-620 colon; 98.9 µM with SK-MEL-28 melanoma; 13 µM with SK-MEL-5 melanoma; 2.57 µM in the assay on A498 renal. Also, the TGI in the assay on TK-10 renal, with IGROV1 ovarian and with MOLT-4 leukemia was above 100 µM in each case.
Take `CCCC(S(=O)(=O)c1ccccc1)S(=O)(=O)c1ccccc1`: the TGI in the assay with SW-620 colon, in the assay on SK-MEL-28 melanoma, with SK-MEL-5 melanoma, in the assay on A498 renal, in the assay on TK-10 renal and in the assay with IGROV1 ovarian was above 100 µM throughout. In the assay on MOLT-4 leukemia, this compound gave a TGI above 100 µM.
Turning to `ClC1=C(Cl)C(Cl)(Cl)c2c3c(c4c(c21)C(Cl)(Cl)C(Cl)=C4Cl)C(Cl)(Cl)C(Cl)=C3Cl`, the TGI with SN12C renal, with SW-620 colon, with SK-MEL-28 melanoma, in the assay on SK-MEL-5 melanoma, in the assay with IGROV1 ovarian and with MOLT-4 leukemia was above 100 µM in each case.
For the compound `Cc1cccc(NC(=O)/C(=N\N)C(c2cnc3ccc([N+](=O)[O-])cc3n2)[N+](=O)[O-])c1C` (configuration not stated), the TGI in the assay on HOP-92 NSCLC, with SN12C renal, with SW-620 colon, with SK-MEL-28 melanoma, in the assay with SK-MEL-5 melanoma and in the assay with TK-10 renal was above 100 µM each time. The TGI with IGROV1 ovarian and with MOLT-4 leukemia was above 100 µM throughout.
Take `O=C1C=C(O)C(=Cc2c(O)cc(O)cc2O)C(O)=C1`: the TGI in the assay with HOP-92 NSCLC, in the assay with SN12C renal, in the assay on SW-620 colon, with SK-MEL-5 melanoma, in the assay with A498 renal and with TK-10 renal was above 100 µM in each case. For the same compound, the TGI in the assay on IGROV1 ovarian and with MOLT-4 leukemia was above 100 µM in each case.
As for `COc1cc(C2(C)SCCCS2)cc(OC)c1OC`, the TGI in the assay on HOP-92 NSCLC, in the assay with SN12C renal, in the assay on SW-620 colon, with SK-MEL-28 melanoma, in the assay on SK-MEL-5 melanoma and in the assay with A498 renal was above 100 µM in each case. Moreover, the TGI in the assay with TK-10 renal, in the assay with IGROV1 ovarian and in the assay with MOLT-4 leukemia was above 100 µM in each case.
For `c1cc(-c2cn3c(n2)SCC3)ccn1`, the TGI in the assay with HOP-92 NSCLC was above 100 µM; in the assay with SN12C renal, above 100 µM; with SW-620 colon, above 57.7 µM; with SK-MEL-28 melanoma it was above 100 µM; with SK-MEL-5 melanoma, above 100 µM; in the assay on A498 renal it was above 100 µM. In addition, the TGI in the assay with TK-10 renal, in the assay on IGROV1 ovarian and with MOLT-4 leukemia was above 100 µM each time.
Take `CC(=O)/C(=C\c1ccccc1O)C(=O)Nc1ccccc1C`: the TGI in the assay on HOP-92 NSCLC was found to be 44.9 µM; in the assay on SW-620 colon it was 53.7 µM; in the assay on SK-MEL-28 melanoma, 53.8 µM; in the assay on SK-MEL-5 melanoma, 27.9 µM; with IGROV1 ovarian, 79 µM; in the assay on MOLT-4 leukemia, 70.1 µM.
On to `Cc1ccccc1-n1c(N)c(-c2nc3ccccc3[nH]2)sc1=S`, for which the TGI with SN12C renal is 56.9 µM; in the assay on SW-620 colon, 72.5 µM; in the assay on SK-MEL-28 melanoma, 39.3 µM; in the assay with SK-MEL-5 melanoma it was 36.6 µM; in the assay on A498 renal, above 100 µM; with TK-10 renal it was 85.8 µM. Moreover, the TGI in the assay on IGROV1 ovarian turned out to be 57 µM; with MOLT-4 leukemia, 70.6 µM.
`CC1=C(C(=O)Nc2ccc(Cl)c(Cl)c2)C(c2ccc([N+](=O)[O-])cc2)C(C(=O)Nc2ccc(Cl)c(Cl)c2)=C(C)N1`: the TGI in the assay on HOP-92 NSCLC is 6.06 µM; in the assay on SN12C renal, 7.3 µM; in the assay with SW-620 colon, 12.4 µM; in the assay on SK-MEL-28 melanoma it was 9.93 µM; in the assay on SK-MEL-5 melanoma it was 3.39 µM; with A498 renal it was 14.8 µM. Also, the TGI in the assay on TK-10 renal is 55 µM; in the assay on IGROV1 ovarian, 14.8 µM; in the assay on MOLT-4 leukemia it was above 100 µM.
Regarding `O=C1OC(=O)c2c1c(-c1ccccc1)nc1ccccc21`, the TGI in the assay on SN12C renal, in the assay with SW-620 colon, with SK-MEL-28 melanoma, with SK-MEL-5 melanoma, with A498 renal and in the assay with TK-10 renal was above 100 µM in each case. Moreover, the TGI in the assay on IGROV1 ovarian and in the assay with MOLT-4 leukemia was above 100 µM in each case.
Consider `c1ccc2c(c1)CCc1c-2n[nH]c1-c1[nH]nc2c1CCc1ccccc1-2`, for which the TGI in the assay with HOP-92 NSCLC, in the assay with SN12C renal, in the assay on SW-620 colon, in the assay on SK-MEL-28 melanoma, with SK-MEL-5 melanoma and with A498 renal was above 100 µM throughout. Further, the TGI in the assay with TK-10 renal, with IGROV1 ovarian and in the assay with MOLT-4 leukemia was above 100 µM in each case.
With `O=Cc1ccc2c(c1I)OCO2`, the TGI in the assay on SN12C renal, in the assay on SW-620 colon, in the assay on SK-MEL-5 melanoma, with A498 renal, with TK-10 renal and in the assay with IGROV1 ovarian was above 100 µM throughout. For the same compound, in the assay on MOLT-4 leukemia, the TGI is above 100 µM.
For the compound `N#CCN1C(=O)c2cc([N+](=O)[O-])cc3cc([N+](=O)[O-])cc(c23)C1=O`, the TGI is 32.5 µM with HOP-92 NSCLC; 27.9 µM in the assay on SN12C renal; 20.3 µM in the assay with SW-620 colon; above 52.8 µM in the assay on SK-MEL-28 melanoma; 29.8 µM with SK-MEL-5 melanoma; above 100 µM with A498 renal. Besides, the TGI with TK-10 renal was above 79.9 µM; in the assay on IGROV1 ovarian, 18.3 µM; with MOLT-4 leukemia, above 22.8 µM.
With `O=C1c2ccccc2N2OC3(N4CCCC4)CCCCC3C12c1ccccc1` (configuration not stated), the TGI in the assay with HOP-92 NSCLC was 29.7 µM; in the assay on SN12C renal, 30.5 µM; in the assay with SW-620 colon it was 31.5 µM; in the assay with SK-MEL-28 melanoma it was 76.2 µM; in the assay on SK-MEL-5 melanoma it was 32 µM; in the assay on A498 renal, above 100 µM. Also, the TGI in the assay on IGROV1 ovarian and with MOLT-4 leukemia was above 100 µM in each case.
In the case of `CCOC(=O)/C(I)=C/c1cc(OC)c(OC)c(OC)c1`, the TGI in the assay on HOP-92 NSCLC is 27.1 µM; in the assay with SN12C renal it was 24.6 µM; with SW-620 colon, 11.6 µM; in the assay with SK-MEL-28 melanoma, 7.88 µM; with SK-MEL-5 melanoma, 24.5 µM; in the assay with A498 renal, 91.3 µM. For the same compound, the results for the TGI in the assay with TK-10 renal, in the assay on IGROV1 ovarian and in the assay on MOLT-4 leukemia were 35.1 µM, 93.7 µM and 40.3 µM, respectively.
Consider `COC(=O)C(C(=O)C(=O)Nc1ccc([N+](=O)[O-])cc1)c1nc2ccc([N+](=O)[O-])cc2[nH]c1=O` (configuration not stated), for which the TGI with HOP-92 NSCLC, in the assay with SN12C renal, in the assay on SW-620 colon, in the assay with SK-MEL-28 melanoma, in the assay on SK-MEL-5 melanoma and with A498 renal was above 100 µM throughout. Also, the TGI in the assay on TK-10 renal, in the assay on IGROV1 ovarian and in the assay with MOLT-4 leukemia was above 100 µM in each case.
On to `O=C(/C=C/c1ccc(Cl)c(Cl)c1)c1cccc2ccccc12`, for which the TGI was found to be 31.4 µM with HOP-92 NSCLC; 31.8 µM in the assay with SN12C renal; 3.08 µM in the assay with SW-620 colon; 33.5 µM with SK-MEL-28 melanoma; 34.7 µM with SK-MEL-5 melanoma; 38 µM with A498 renal. Also, the TGI turned out to be 30.5 µM in the assay on TK-10 renal and 24.8 µM in the assay on IGROV1 ovarian.
As for `CC1=C(CC2C(=O)N(c3ccccc3)S(=O)(=O)NC2C)C(=O)N(c2ccccc2)S(=O)(=O)N1C` (configuration not stated), the TGI in the assay on HOP-92 NSCLC, in the assay with SN12C renal, in the assay on SW-620 colon, with SK-MEL-28 melanoma, in the assay on SK-MEL-5 melanoma and with TK-10 renal was above 100 µM throughout. Besides, the TGI in the assay with IGROV1 ovarian and with MOLT-4 leukemia was above 100 µM in each case.
For `O=C(NCCNCCO)c1cccc2ccc(-c3ccccc3)nc12`, the TGI in the assay with HOP-92 NSCLC is 11.7 µM; with SN12C renal it was 17.6 µM; in the assay with SW-620 colon it was 14.2 µM; in the assay on SK-MEL-28 melanoma, 22.1 µM; in the assay on SK-MEL-5 melanoma it was 12.5 µM; in the assay on A498 renal it was 8.41 µM. Besides, the TGI in the assay with TK-10 renal turned out to be 6.72 µM; with IGROV1 ovarian, 13.2 µM.
Take `Cc1cc2c(c(C(N)=O)c1C)-c1cc(Cl)cc(Cl)c1C2=O`: the TGI in the assay with HOP-92 NSCLC, in the assay with SN12C renal, in the assay with SK-MEL-28 melanoma, in the assay with A498 renal, in the assay with TK-10 renal and in the assay with IGROV1 ovarian was above 100 µM each time. In the assay on MOLT-4 leukemia, the TGI is above 100 µM.
As to `O=C(c1ccccc1)c1c(CC(O)c2ccncc2)n(C(=O)c2ccccc2)c2ccccc12` (configuration not stated), the TGI was 29.4 µM in the assay with HOP-92 NSCLC; 39.2 µM in the assay on SW-620 colon; 32.4 µM in the assay on SK-MEL-28 melanoma; 30.1 µM in the assay with SK-MEL-5 melanoma; 75.2 µM in the assay with TK-10 renal; 40.5 µM with IGROV1 ovarian. This compound also registered a TGI in the assay on MOLT-4 leukemia of 42.1 µM.
Turning to `COc1ccc(NC(=O)C(=O)/C=C(\O)c2ccccc2)cc1`, the TGI in the assay on HOP-92 NSCLC, in the assay with SN12C renal, in the assay on SW-620 colon, in the assay on SK-MEL-28 melanoma, with SK-MEL-5 melanoma and in the assay with TK-10 renal was above 10 µM in each case. Further, the TGI with IGROV1 ovarian was above 10 µM; with MOLT-4 leukemia, 4.18 µM.
Take `CCOC(=O)C1Nc2ccccc2[C@H]2OCC[C@@H]12` (some centres not stated): the TGI with SN12C renal, in the assay on SW-620 colon, in the assay on SK-MEL-28 melanoma, in the assay on SK-MEL-5 melanoma, with A498 renal and with TK-10 renal was above 100 µM each time. Besides, the TGI in the assay on IGROV1 ovarian and in the assay with MOLT-4 leukemia was above 100 µM in each case.
